# Test results published in US9931347B2, “Pharmaceutical compound” (IOmet Pharma Ltd., priority 2013, dated 2018).
# Molecular target: T1, IDO (SKOV3 human ovarian adenocarcinoma cells, IFN-γ induced) (Homo sapiens, UniProt P14902)
# T1 construct: IDO expression was induced in the SKOV3 cells by the addition of 500 ng/ml IFN-γ; endogenous in cells; host or cells: SKOV3 human ovarian adenocarcinoma cells, induced with IFN-γ
# Experiment: SKOV3 Kynurenine cell based assay
# Settings: IDO induced by 500 ng/ml IFN-γ, 500 μM L-tryptophan, 48 hours
# Summary of the method: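 IFN-γ (500 ng/ml) induced IDO in SKOV3 cells, seeded at 40,000/well in phenol red-free RPMI with 10% FCS, 2 mM L-glutamine and 500 μM L-tryptophan. Cells were incubated with or without compound at 37° C for 48 h. Supernatant kynurenine was detected with Ehrlich's reagent.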
# T1 sequence (P14902 whole entry): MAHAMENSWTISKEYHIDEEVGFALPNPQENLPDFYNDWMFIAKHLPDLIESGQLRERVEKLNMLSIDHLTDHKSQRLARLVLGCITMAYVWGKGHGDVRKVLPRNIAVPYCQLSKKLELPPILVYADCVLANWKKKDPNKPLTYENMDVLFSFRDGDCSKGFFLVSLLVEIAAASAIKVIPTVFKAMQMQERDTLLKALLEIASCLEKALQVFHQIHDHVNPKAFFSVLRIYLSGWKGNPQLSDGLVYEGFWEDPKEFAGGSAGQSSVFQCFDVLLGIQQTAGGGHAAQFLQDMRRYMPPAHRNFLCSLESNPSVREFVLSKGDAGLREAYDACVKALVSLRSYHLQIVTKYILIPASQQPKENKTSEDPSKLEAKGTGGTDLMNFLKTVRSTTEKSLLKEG
row,Compound,SKOV3 Kynurenine cell based assay pIC50
1,CCc1cc(Br)ccc1S(=O)(=O)N1CCC(c2c[nH]c3ccc(OC)cc23)CC1 [Compound 29],+ (+ = pIC50 4.00-4.99)
2,COc1ccc2[nH]cc(C3CCN(S(=O)(=O)c4ccc(Br)cc4OC(F)(F)F)CC3)c2c1 [Compound 30],+ (+ = pIC50 4.00-4.99)
3,Cc1ccc2[nH]cc(C3CCN(S(=O)(=O)c4cc(C)c(Cl)cc4Cl)CC3)c2c1 [Compound 31],+ (+ = pIC50 4.00-4.99)
4,Cc1ccc2[nH]cc(C3CCN(S(=O)(=O)c4cccc(Cl)c4C)CC3)c2c1 [Compound 32],+ (+ = pIC50 4.00-4.99)
5,Cc1ccc2[nH]cc(C3CCN(S(=O)(=O)c4ccc(Br)cc4OC(F)(F)F)CC3)c2c1 [Compound 34],+ (+ = pIC50 4.00-4.99)
6,Cc1ccc2[nH]cc(C3CCN(S(=O)(=O)c4cc(C(F)(F)F)ccc4C(F)(F)F)CC3)c2c1 [Compound 35],+ (+ = pIC50 4.00-4.99)
7,Cc1ccc2[nH]cc(C3CCN(S(=O)(=O)c4ccccc4OC(F)(F)F)CC3)c2c1 [Compound 36],++ (++ = pIC50 5.00-5.99)
8,Cc1cccc2c(C3CCN(S(=O)(=O)c4ccc5c(c4)CN(C(=O)C(F)(F)F)CC5)CC3)c[nH]c12 [Compound 37],+ (+ = pIC50 4.00-4.99)
9,Cc1cccc2c(C3CCN(C(=O)c4ccc(F)c(C(F)(F)F)c4)CC3)c[nH]c12 [Compound 54],+ (+ = pIC50 4.00-4.99)
10,COc1ccc2[nH]cc(C3CCN(S(=O)(=O)c4cc(C(F)(F)F)ccc4C(F)(F)F)CC3)c2c1 [Compound 55],++ (++ = pIC50 5.00-5.99)
11,COC(=O)c1ccccc1S(=O)(=O)N1CCC(c2c[nH]c3ccc(C#N)cc23)CC1 [Compound 56],++ (++ = pIC50 5.00-5.99)

# Molecular target: Recombinant human IDO (Homo sapiens, UniProt P14902)
# Sequence (P14902 whole entry): as above
# Experiment: hIDO biochemical coupled assay
# Settings: 45 μM L-tryptophan, coupled with kynurenine formamidase
# Summary of the method: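 Recombinant human IDO incubated in 50 mM KPO4 (pH 7.0), 0.5 mM EGTA, 0.5 mM EDTA, 0.05% Triton X100, 20 mM ascorbate, 10 μM methylene blue, 500 U/ml catalase and 50 μg/ml kynurenine formamidase. N-formylkynurenine converted to kynurenine, quantified by fluorescence after Ehrlich's reagent.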
row,Compound,hIDO biocehmical assay pIC50
1,CCc1cc(Br)ccc1S(=O)(=O)N1CCC(c2c[nH]c3ccc(OC)cc23)CC1 [Compound 29],+− (+− = pIC50 <4.00)
2,COc1ccc2[nH]cc(C3CCN(S(=O)(=O)c4ccc(Br)cc4OC(F)(F)F)CC3)c2c1 [Compound 30],+− (+− = pIC50 <4.00)
3,Cc1ccc2[nH]cc(C3CCN(S(=O)(=O)c4cc(C)c(Cl)cc4Cl)CC3)c2c1 [Compound 31],+− (+− = pIC50 <4.00)
4,Cc1ccc2[nH]cc(C3CCN(S(=O)(=O)c4cccc(Cl)c4C)CC3)c2c1 [Compound 32],+− (+− = pIC50 <4.00)
5,Cc1ccc2[nH]cc(C3CCN(S(=O)(=O)c4ccc(Br)cc4OC(F)(F)F)CC3)c2c1 [Compound 34],+− (+− = pIC50 <4.00)
6,Cc1ccc2[nH]cc(C3CCN(S(=O)(=O)c4cc(C(F)(F)F)ccc4C(F)(F)F)CC3)c2c1 [Compound 35],+− (+− = pIC50 <4.00)
7,Cc1ccc2[nH]cc(C3CCN(S(=O)(=O)c4ccccc4OC(F)(F)F)CC3)c2c1 [Compound 36],+− (+− = pIC50 <4.00)
8,Cc1cccc2c(C3CCN(S(=O)(=O)c4ccc5c(c4)CN(C(=O)C(F)(F)F)CC5)CC3)c[nH]c12 [Compound 37],+− (+− = pIC50 <4.00)
9,Cc1cccc2c(C3CCN(C(=O)c4ccc(F)c(C(F)(F)F)c4)CC3)c[nH]c12 [Compound 54],+− (+− = pIC50 <4.00)
10,COc1ccc2[nH]cc(C3CCN(S(=O)(=O)c4cc(C(F)(F)F)ccc4C(F)(F)F)CC3)c2c1 [Compound 55],+− (+− = pIC50 <4.00)
11,COC(=O)c1ccccc1S(=O)(=O)N1CCC(c2c[nH]c3ccc(C#N)cc23)CC1 [Compound 56],+− (+− = pIC50 <4.00)

# Molecular target: Recombinant human TDO (Homo sapiens, UniProt P48775)
# Sequence (P48775 whole entry): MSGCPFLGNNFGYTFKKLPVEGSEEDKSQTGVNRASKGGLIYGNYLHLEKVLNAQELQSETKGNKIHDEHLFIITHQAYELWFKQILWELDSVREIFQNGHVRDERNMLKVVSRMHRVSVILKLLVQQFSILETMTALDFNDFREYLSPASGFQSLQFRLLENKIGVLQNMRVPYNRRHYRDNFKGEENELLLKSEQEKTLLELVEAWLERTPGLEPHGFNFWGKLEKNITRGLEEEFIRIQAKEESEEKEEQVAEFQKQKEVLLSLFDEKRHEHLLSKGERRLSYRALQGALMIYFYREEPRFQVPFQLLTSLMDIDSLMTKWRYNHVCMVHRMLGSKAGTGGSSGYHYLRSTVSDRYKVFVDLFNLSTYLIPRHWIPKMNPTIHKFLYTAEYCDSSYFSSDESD
# Experiment: hTDO biochemical coupled assay
# Settings: 330 μM L-tryptophan, coupled with kynurenine formamidase
# Summary of the method: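 Recombinant human TDO with 330 μM L-tryptophan in 50 mM KPO4 pH 7.0 containing EGTA, EDTA, Triton X100, ascorbate, methylene blue, catalase and kynurenine formamidase (KynB), 17 min at room temperature. Stopped with Ehrlich's reagent, 5 min, then kynurenine fluorescence read (Ex475, Em530).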
row,Compound,hTDO biochemical assay pIC50
1,CCc1cc(Br)ccc1S(=O)(=O)N1CCC(c2c[nH]c3ccc(OC)cc23)CC1 [Compound 29],+− (+− = pIC50 <4.00)
2,COc1ccc2[nH]cc(C3CCN(S(=O)(=O)c4ccc(Br)cc4OC(F)(F)F)CC3)c2c1 [Compound 30],+− (+− = pIC50 <4.00)
3,Cc1ccc2[nH]cc(C3CCN(S(=O)(=O)c4cc(C)c(Cl)cc4Cl)CC3)c2c1 [Compound 31],+− (+− = pIC50 <4.00)
4,Cc1ccc2[nH]cc(C3CCN(S(=O)(=O)c4cccc(Cl)c4C)CC3)c2c1 [Compound 32],+− (+− = pIC50 <4.00)
5,Cc1ccc2[nH]cc(C3CCN(S(=O)(=O)c4ccc(Br)cc4OC(F)(F)F)CC3)c2c1 [Compound 34],+− (+− = pIC50 <4.00)
6,Cc1ccc2[nH]cc(C3CCN(S(=O)(=O)c4cc(C(F)(F)F)ccc4C(F)(F)F)CC3)c2c1 [Compound 35],+− (+− = pIC50 <4.00)
7,Cc1ccc2[nH]cc(C3CCN(S(=O)(=O)c4ccccc4OC(F)(F)F)CC3)c2c1 [Compound 36],+− (+− = pIC50 <4.00)
8,Cc1cccc2c(C3CCN(S(=O)(=O)c4ccc5c(c4)CN(C(=O)C(F)(F)F)CC5)CC3)c[nH]c12 [Compound 37],+− (+− = pIC50 <4.00)
9,Cc1cccc2c(C3CCN(C(=O)c4ccc(F)c(C(F)(F)F)c4)CC3)c[nH]c12 [Compound 54],+− (+− = pIC50 <4.00)
10,COc1ccc2[nH]cc(C3CCN(S(=O)(=O)c4cc(C(F)(F)F)ccc4C(F)(F)F)CC3)c2c1 [Compound 55],+− (+− = pIC50 <4.00)
11,COC(=O)c1ccccc1S(=O)(=O)N1CCC(c2c[nH]c3ccc(C#N)cc23)CC1 [Compound 56],+− (+− = pIC50 <4.00)

# Molecular target: T2, TDO (A172 human glioblastoma cells) (Homo sapiens, UniProt P48775)
# T2 construct: This assay utilised cancer cells which expressed either TDO or IDO; endogenous in cells; host or cells: A172 human glioblastoma cells
# T2 sequence (P48775 whole entry): as above
# Experiment: A172 Kynurenine cell based assay
# Settings: 500 μM L-tryptophan, 48 hours, kynurenine by Erhlich's reagent
# Summary of the method: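 A172 glioblastoma cells (30,000/well) cultured at 37° C. in phenol red-free RPMI with 10% FCS, 2 mM L-glutamine and 500 μM L-tryptophan, with or without test compound. After 48 hours, kynurenine in the supernatant was read with Erhlich's reagent (5 min) as absorbance at 490 nm.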
row,Compound,A172 Kynurenine cell based assay pIC50
1,CCc1cc(Br)ccc1S(=O)(=O)N1CCC(c2c[nH]c3ccc(OC)cc23)CC1 [Compound 29],+− (+− = pIC50 <4.00)
2,COc1ccc2[nH]cc(C3CCN(S(=O)(=O)c4ccc(Br)cc4OC(F)(F)F)CC3)c2c1 [Compound 30],+− (+− = pIC50 <4.00)
3,Cc1ccc2[nH]cc(C3CCN(S(=O)(=O)c4cc(C)c(Cl)cc4Cl)CC3)c2c1 [Compound 31],+− (+− = pIC50 <4.00)
4,Cc1ccc2[nH]cc(C3CCN(S(=O)(=O)c4cccc(Cl)c4C)CC3)c2c1 [Compound 32],+− (+− = pIC50 <4.00)
5,Cc1ccc2[nH]cc(C3CCN(S(=O)(=O)c4ccc(Br)cc4OC(F)(F)F)CC3)c2c1 [Compound 34],+ (+ = pIC50 4.00-4.99)
6,Cc1ccc2[nH]cc(C3CCN(S(=O)(=O)c4cc(C(F)(F)F)ccc4C(F)(F)F)CC3)c2c1 [Compound 35],+− (+− = pIC50 <4.00)
7,Cc1ccc2[nH]cc(C3CCN(S(=O)(=O)c4ccccc4OC(F)(F)F)CC3)c2c1 [Compound 36],+ (+ = pIC50 4.00-4.99)
8,Cc1cccc2c(C3CCN(S(=O)(=O)c4ccc5c(c4)CN(C(=O)C(F)(F)F)CC5)CC3)c[nH]c12 [Compound 37],+− (+− = pIC50 <4.00)
9,Cc1cccc2c(C3CCN(C(=O)c4ccc(F)c(C(F)(F)F)c4)CC3)c[nH]c12 [Compound 54],+ (+ = pIC50 4.00-4.99)
10,COc1ccc2[nH]cc(C3CCN(S(=O)(=O)c4cc(C(F)(F)F)ccc4C(F)(F)F)CC3)c2c1 [Compound 55],+− (+− = pIC50 <4.00)
11,COC(=O)c1ccccc1S(=O)(=O)N1CCC(c2c[nH]c3ccc(C#N)cc23)CC1 [Compound 56],+− (+− = pIC50 <4.00)
